“Also recorded” adds a separate entry of the source. Like-named read-outs stand apart in the source and are kept apart here.
Experiments:
[1] = Moisture sorption/desorption (moisture balance); assay type: physicochemical; conditions: for weight loss at 5% RH: sample not dried prior to analysis; for hygroscopicity: based on moisture sorption/desorption data
Description: The moisture sorption/desorption data was collected on a VT SGA-100 moisture balance system. […] The sample was not dried prior to analysis. Equilibrium criteria used for analysis was less than 0.0100% weight change in 5 minutes with a maximum equilibration time of 3 hours if the weight criterion was not met. Data was not corrected for the initial moisture content of the samples.

physchem = conditions: thermodynamic from solid, SOLUBILITY (mg/mL), ambient temperature
[2] = Interconversion studies of Forms A and B; assay type: physicochemical
Description: The interconversion of Forms A and B were preformed using ethyl acetate and 95% isopropanol:water. […] The interconversions in ethyl acetate yielded a mixture of Forms A and B, which is probably due to the low solublility of the materials.

[3] = ambient temperature, sodium salt
[4] = listed as Sample lot I Form A, sodium salt
[5] = listed as Sample lot III Form A, sodium salt
[6] = listed as Sample lot IV Form A, sodium salt

Cc1cc2c(cc1CC(=O)c1sccc1S(=O)(=O)Nc1onc(C)c1Cl)OCO2.[Na] [Amorphous, N-(4-chloro-3-methyl-5-isoxazolyl)-2-[2-methyl-4,5-(methylenedioxy)phenylacetyl]thiophene-3-sulfonamide, sodium salt]
weight loss at 5% RH [1]: 1.4% weight loss at 5% RH, | total weight gain at 95% RH ([1]; listed as amorphous form, sodium salt): 22% | total weight gain at 95% RH ([1]; sodium salt): 22.0.% total weight gain at 95% RH | hygroscopicity [1]: highly hygroscopic

Cc1cc2c(cc1CC(=O)c1sccc1S(=O)(=O)[N-]c1onc(C)c1Cl)OCO2.[Na+] [Form A, N-(4-chloro-3-methyl-5-isoxazolyl)-2-[2-methyl-4,5-(methylenedioxy)phenylacetyl]thiophene-3-sulfonamide, sodium salt]
weight loss at 5% RH [1, 4]: 0.18% weight loss at 5% RH, | weight loss at 5% RH [1, 5]: 0.04% weight loss at 5% RH, | weight loss at 5% RH [1, 6]: 0.05% weight loss at 5% RH, | weight loss at 5% RH ([1]; sodium salt): minimal weight | total weight gain at 95% RH [1, 4]: 1.48% total weight gain at 95% RH | total weight gain at 95% RH [1, 5]: 1.08% total weight gain at 95% RH | total weight gain at 95% RH [1, 6]: 1.10% total weight gain at 95% RH | total weight gain at 95% RH ([1]; sodium salt): less than 1.5% | hygroscopicity ([1]; sodium salt): non-hygroscopic up to 75% RH; also recorded: nonhygroscopic | solubility (physchem; organic solvent or mixture, N,N-dimethylformamide (DMF)): 228 mg/mL | solubility (physchem; organic solvent or mixture, acetone): 96 mg/mL | solubility (physchem; organic solvent or mixture, acetonitrile (ACN)): 25 mg/mL | solubility (physchem; organic solvent or mixture, chloroform): < 3 mg/mL | solubility (physchem; organic solvent or mixture, dichloromethane): < 3 mg/mL | solubility (physchem; organic solvent or mixture, ethanol (EtOH)): 60 mg/mL | solubility (physchem; organic solvent or mixture, ethyl acetate (EtOAc)): 6 mg/mL | solubility (physchem; organic solvent or mixture, hexanes): < 8 mg/mL | solubility (physchem; organic solvent or mixture, isopropanol (IPA)): < 4 mg/mL | solubility (physchem; organic solvent or mixture, methanol (MeOH)): 160 mg/mL | solubility (physchem; organic solvent or mixture, methyl ethyl ketone (MEK)): 34 mg/mL | solubility (physchem; organic solvent or mixture, methyl t-butyl ether (MTBE)): < 3 mg/mL | solubility (physchem; organic solvent or mixture, tetrahydrofuran (THF)): 86 mg/mL | solubility (physchem; organic solvent or mixture, toluene): < 7 mg/mL | solubility (physchem; water): 48 mg/mL | relative thermodynamic stability of the forms ([2]; interconversion in 95% isopropanol:water): more thermodynamically stable form | relative stability of the forms ([2]; interconversion studies in ethyl acetate (so in the source)): most stable form | relative thermodynamic stability of the forms ([2]; interconversion studies, solvent not stated): more thermodynamically stable form | solubility ([3]; N,N-dimethylformamide (DMF)): >228 mg/mL | solubility ([3]; chloroform): <3 mg/mL | solubility ([3]; dichloromethane): <3 mg/mL | solubility ([3]; methyl t-butyl ether (MTBE)): <3 mg/mL

Cc1cc2c(cc1CC(=O)c1sccc1S(=O)(=O)[N-]c1onc(C)c1Cl)OCO2.[Na+] [Form B, N-(4-chloro-3-methyl-5-isoxazolyl)-2-[2-methyl-4,5-(methylenedioxy)phenylacetyl]thiophene-3-sulfonamide, sodium salt]
weight loss at 5% RH ([1]; sodium salt): 0.13% weight loss at 5% RH, | weight change during the moisture sorption/desorption experiment ([1]; 5 to 95% RH sorption, 95 to 5% RH desorption): loses and gains minimal weight | total weight gain at 95% RH ([1]; sodium salt): 0.98% total weight gain at 95% RH

Reference: patent publication US20090104265A1, “Polymorphs of N-(4-chloro-3-methyl-5-isoxazolyl) 2-[2-methyl-4,5-(methylenedioxy)phenylacetyl] thiophene-3-sulfonamide, sodium salt” (priority 2006, published 2009)
